In a melting point compilation (Tetko et al.; mined from patent text by program, amines drawn as free bases though some values may be those of a salt):

Compared with C=Cn1nc(-c2ccc(OC)cc2)cc(C(=O)NC)c1=O, C=CCC(NC(=O)c1ccc(OC)cc1)C(C)=O (centres undefined) is lower in melting point: 130 to 133 °C for the first, 58 to 59 °C for the second.

First: ClC(Cl)=CCOc1cc(Cl)c(OCC=Cc2ccccc2)c(Cl)c1
Second: CCOC(=O)/C=C/c1cc(OCc2ccccc2)ccc1Br
The melting point of the first is lower: 51.3 °C for the first, 72 to 74 °C for the second.

Compared with CC(=O)NC[C@H]1CN(c2ccc(N3CCC(=C(C#N)C(=O)N4CCCC4)CC3)c(F)c2)C(=O)O1, CC(=O)NCC1CN(c2ccc(N3CC4CCCN(C(=O)COC(C)=O)C4C3)c(F)c2)C(=O)O1 (centres undefined) is lower in melting point: 125 to 128 °C for the first, 113 to 116 °C for the second.

First: CC(=N)NS(=O)(=O)c1cc(I)cc(C#N)c1
Second: CC(=O)Nc1ccc([N+](=O)[O-])c(C=O)c1
The melting point of the first is higher: 177 to 178 °C for the first, 131 to 135 °C for the second.

First: COc1ccc(C2(C#N)CCC(=O)C(C(N)=O)C2)cc1OCCl (centres undefined)
Second: COc1cc(C(N)=O)c([N+](=O)[O-])cc1OCc1ccccc1
The melting point of the first is lower: 154 to 155 °C for the first, 222 to 224 °C for the second.

Compared with Clc1ccc2c(c1)C(c1ccccc1Cl)OCc1nnc(Br)n1-2 (centres undefined), O=C1CCC(=O)N1c1nc(Nc2ccc(O)c(Cl)c2)cc(-c2ccccc2)n1 is higher in melting point: 167 to 168 °C for the first, 274 to 276 °C for the second.

First: CC(C)OC(=O)C(C(=O)Nc1nccs1)=C1SCS1
Second: CCOC(=O)Cc1cnc(NS(C)(=O)=O)s1
The melting point of the first is higher: 174 to 175 °C for the first, 153 to 155 °C for the second.

First: Cc1cc(-c2nc3cccnn3c2-c2ccnc(NC(=O)c3ccc(N(C)C)cc3)c2)ccc1F
Second: Cn1nc(-c2ccc(F)cc2)c(-c2ccncc2)c1C(O)CCc1ccccc1 (centres undefined)
The melting point of the first is higher: 245 to 246 °C for the first, 62 to 65 °C for the second.

Compared with CCC(SCC(=O)O)c1cc2c(cc1C)OCO2 (centres undefined), CCc1c(CC(C)(C)C(=O)O)ccc2c1OCO2 is lower in melting point: 98 to 99 °C for the first, 73 to 74 °C for the second.

First: COCCNC(=O)COc1ccc(C(=O)CN2CCN(c3ccncc3)CC2)cc1
Second: CCOC(=O)CCCOc1ccc(C(=O)Nc2ccccc2Sc2ccccc2-c2nnn[nH]2)cc1
The melting point of the first is lower: 142 to 145 °C for the first, 173 to 175 °C for the second.

First: COC1=C(OC)C(=O)C(CCCCCCCCCCCCCCCCCC(=O)O)=C(C)C1=O
Second: CCCCCCCCCCCCCCCCCCNC(=O)OCC(CNS(=O)(=O)CCCI)Oc1ccon1 (centres undefined)
The melting point of the first is higher: 77 to 79 °C for the first, 69 to 71.5 °C for the second.

First: COc1ccccc1C(=O)CN1CCC(=O)C(C(c2ccc(F)cc2)c2ccc(F)cc2)C1 (centres undefined)
Second: COC(=O)Cn1c(=O)c2ccccc2n(CCCCN2CCC(OC(c3ccccc3)c3ccccc3)CC2)c1=O
The melting point of the first is higher: 148 to 149 °C for the first, 91 to 93 °C for the second.

First: COC(=O)c1ccc(CO)cc1O
Second: CC(=O)Nc1ccc(CO)cc1[N+](=O)[O-]
The melting point of the first is lower: 77 to 78 °C for the first, 114 to 115 °C for the second.

First: CC(=O)NC1CCN(CCCOc2ccc3c4c(c(=O)oc3c2)CCCC4)CC1
Second: Cc1cc2c(cc1CO)CCC(CCN1CCCC1)=C2
The melting point of the first is higher: 90 to 92 °C for the first, 76 to 77 °C for the second.

First: COCCOc1cc(N(C)S(=O)(=O)c2ccccn2)c2[nH]c(C3=NCC(CC(=O)O)S3)cc2c1 (centres undefined)
Second: CCOC(=O)c1cc(OCc2ccccc2)c2ccc(C#N)cc2c1
The melting point of the first is lower: 107 to 109 °C for the first, 125 °C for the second.

Compared with C=CCC1C(OCc2ccccc2)CC(OCc2ccccc2)C1OS(=O)(=O)c1ccc(C)cc1 (single isomer, unassigned; (-)), O=S(=O)(c1ccccc1)c1ccc(-c2ccccc2)s1 is higher in melting point: 57 to 58 °C for the first, 115 to 116 °C for the second.

Compared with O=C(NCCCCCC(=O)c1ncco1)c1cc2ccccc2[nH]1, O=C(Cc1ccccc1)NCC(=O)c1ccccc1 is lower in melting point: 176 to 179 °C for the first, 66 to 77 °C for the second.

Compared with c1ccc2c(c1)OCC(CN1CCC(CNc3nc4cnccc4s3)CC1)O2 (centres undefined), COc1ccc(-c2cc3c(N4CCc5ccccc54)ncnc3[nH]2)cc1 is higher in melting point: 147 °C for the first, greater than 300 °C for the second.

First: COc1ccc(CCNC(=O)C(=O)NCc2ccc([N+](=O)[O-])cc2)cc1OC1CCCC1
Second: CC(C)(C)C1=NN(c2ccc(C(=O)O)cc2)C(c2ccc([N+](=O)[O-])cc2)C1 (centres undefined)
The melting point of the first is lower: 148 to 150 °C for the first, 245 °C for the second.

First: CSc1cc2c(cc1C(F)(F)F)N(C(=O)Nc1ccc(-c3csc(-c4ccncc4)n3)cc1)CC2
Second: CC(C)C(=O)n1ccc(-c2ccc(Oc3ccccc3)cc2)n1
The melting point of the first is higher: 253 to 254 °C for the first, 49 to 51 °C for the second.

Compared with O=c1[nH]c(Cc2ccc(OCCc3coc(-c4ccccc4)n3)cc2)no1, O=C1SCC(O)=C1Cc1ccc(OCCc2ccccc2)cc1 is higher in melting point: 154 to 158 °C for the first, 170 to 171 °C for the second.

First: O=c1[nH]c2ccc(O)cc2n1CCN1CCN(c2cccc(C(F)(F)F)c2)CC1
Second: O=Cc1c(N2CCNCC2)n(Cc2ccccc2)c2ccccc12
The melting point of the first is higher: greater than 250 °C for the first, 163 to 165 °C for the second.

First: CCCCN(C(C)=O)C1NC(=O)N(c2ccc(OC(C)=O)cc2)C(=O)N1
Second: CCCCN(C1CCCOc2ccccc21)S(=O)(=O)CC (centres undefined)
The melting point of the first is higher: 206 to 208 °C for the first, 62 to 65 °C for the second.

First: O=C(NCc1nccs1)c1ccnc(N2CCN(Cc3ccc(F)cc3)C2=O)c1
Second: COc1ccc(CC(O)c2ccccn2)cc1 (centres undefined)
The melting point of the first is higher: 123 to 125 °C for the first, 110 to 112 °C for the second.

First: CCCC(=O)Nc1nn(COCC[Si](C)(C)C)c2cc(Cl)c(Br)cc12
Second: COc1ccc2c(Cc3c(Cl)cncc3Cl)nn(CC(=O)NO)c(=O)c2c1
The melting point of the first is lower: 130 °C for the first, 256 to 258 °C for the second.

Cc1cc(-c2nc3cc(-c4ccncc4)cc(N)n3n2)oc1C and Cc1ccc(-c2ccc(Cl)cc2)cc1-c1c(O)cnn(C)c1=O cannot be ordered by melting point: 275 to 277 °C for the first, greater than 250 °C for the second.

Compared with CCCC(=O)Nc1cccc(N(CCO)CCO)c1, CCCCCc1ccc(CCCCCC(=O)O)cc1 is lower in melting point: 88 to 90 °C for the first, 29 to 30 °C for the second.

Compared with COc1cc2c(cc1OC)C(C(S)(C#N)CCC(=O)OCCC(C)C)=NCC2 (centres undefined), COc1cc(C)cc(OC)c1-c1ccccc1C(=O)O is higher in melting point: 120 °C for the first, 187 °C for the second.

First: CC(C)(C)C(=O)Nc1ccc(Cl)cc1C1(O)CCN(C/C=C/c2ccc(Cl)cc2)CC1
Second: CC(C)(Oc1ccc(C(=O)c2ccc(Cl)cc2)cc1)C(=O)NCC(=O)O
The melting point of the first is higher: 177 to 179 °C for the first, 144 to 146 °C for the second.

First: O=C(O)c1ccc(O)c(Nc2cc(Cl)cc(Cl)c2)c1
Second: COC(=O)c1cc(=O)n(C)c2ccc(C(=O)c3ccc(Cl)cc3)cc12
The melting point of the first is lower: 166 to 167 °C for the first, 182 °C for the second.

First: Cc1nc2c(c3c1[nH]c1cc(Cl)ccc13)C(=O)CC(C)(C)C2
Second: Cc1ccc2c(=O)n3nccc3[nH]c2n1
The melting point of the first is lower: 248 to 250 °C for the first, greater than 300 °C for the second.

First: CC1=Cc2c(cccc2-c2cccc3ccccc23)C1
Second: Oc1cc2c(cc1-c1nc3cc(-c4ccccc4)ccc3o1)oc1ccccc12
The melting point of the first is lower: 143 °C for the first, 293 to 295 °C for the second.

Compared with CC(C(=O)O)c1ccc(-c2ccc(F)cc2F)cc1 (centres undefined), CCC(=S)c1ccc(NS(C)(=O)=O)c(Oc2ccc(F)cc2F)c1 is lower in melting point: 110 to 113 °C for the first, 74 to 76 °C for the second.

Compared with C(=Cc1c[nH]cn1)CC(c1ccccc1)c1ccccc1, Cc1nnc(SCC2=C(C(=O)OC(c3ccccc3)c3ccccc3)N3C(=O)C(N)C3SC2)s1 (centres undefined) is lower in melting point: greater than 240 °C for the first, 157 to 159 °C for the second.

First: CC(C)(C)NC(=O)CCCCl
Second: CCCCCCCCCCCCCC(=O)NN
The melting point of the first is lower: 62.5 to 64 °C for the first, 107 to 111 °C for the second.

Compared with COc1ccc(-c2nc(Cl)nc(Cl)n2)cc1, N#Cc1ccc(OCCCCN2C(=O)c3ccccc3C2=O)cc1 is lower in melting point: 131 to 134 °C for the first, 129 to 130 °C for the second.

Compared with OCc1c(F)c(F)c(Br)c(F)c1F, Nc1cnc(F)c(Br)c1 is higher in melting point: 60 to 62 °C for the first, 91 to 92 °C for the second.

CC(=O)Nc1ccc2nc3n(c2c1)CCC3 and CCCc1cc2c(=O)n3cc(C(=O)O)ccc3nc2s1 cannot be ordered by melting point: 250 to 255 °C for the first, 250 to 254 °C for the second.

First: Nc1cccc(N)c1Cl
Second: CC1(C)COC(c2ccccc2)(c2ccc(N)c([N+](=O)[O-])c2)OC1
The melting point of the first is lower: 82 to 83.5 °C for the first, 140 °C for the second.

First: O=C1NCC(C(=O)O)S1 (centres undefined)
Second: O=CN1CCN(c2ncc3c(=O)c(C(=O)O)c[nH]c3n2)CC1
The melting point of the first is lower: 148 to 150 °C for the first, greater than 300 °C for the second.

First: Cc1ccc(-n2c3ccccc3c3cc(C(C#N)=C(C#N)C#N)ccc32)cc1
Second: CCOC(=O)c1c(-c2ccc(O)cc2)c(C#N)c(=O)n2ccccc12
The melting point of the first is lower: 233 to 234 °C for the first, 284 to 290 °C for the second.

First: Cc1nn(C)c(NN)c1[N+](=O)[O-]
Second: O=[N+]([O-])c1ccc2c(c1)N(C1CC1)CNS2(=O)=O
The melting point of the first is higher: 177 to 179 °C for the first, 166 to 169 °C for the second.

First: c1cc(N2CCOCC2)ccn1
Second: Brc1ccc(-c2cn([C@H]3CN4CCC3CC4)nn2)o1
The melting point of the first is lower: 93 to 95 °C for the first, 144 °C for the second.

First: CSc1ccc(C=CC(N)=O)cc1
Second: CCOC(=O)C=Cc1ccc(F)cc1F
The melting point of the first is higher: 193 °C for the first, 40 to 40.5 °C for the second.

First: CCCCCCCCCCCCCCCCNC(=O)c1ccc(-n2oc(C(C)(C)C)c(COc3ccc(N)cc3)c2=O)c([N+](=O)[O-])c1
Second: CCCCCCOc1c(F)ccc(C(N)=O)c1F
The melting point of the first is higher: 220 °C for the first, 86 to 87 °C for the second.

First: Cc1cc(O)c(Oc2ccccc2C#N)cc1-c1ccsc1
Second: COc1cc2nc(N)nc(-c3ccccc3Br)c2cc1OC
The melting point of the first is lower: 155 to 159 °C for the first, 241 to 243 °C for the second.

First: CC(C)CCNC(=NC#N)Nc1cccnc1
Second: CC(C)c1cccc(C(C)C)c1NC(=O)C(Br)c1ccccc1 (centres undefined)
The melting point of the first is lower: 136 °C for the first, 207 to 210 °C for the second.

Compared with COc1cc(C(C)C)c2c(c1)S(=O)(=O)N(COC(=O)c1sccc1C)C2=O, CCOc1nn(CCOc2nn(CC)cc2CC(=O)O)cc1C(=O)NCc1ccc(Cl)cc1Cl is higher in melting point: 132 to 134 °C for the first, 157 to 158 °C for the second.

First: O=C(O)CCn1c2ccc(O)cc2c2c3c(c(-c4ccccc4Cl)cc21)C(=O)NC3=O
Second: CC(C)Oc1ccc(CCCOc2cc(CCC(=O)O)n(-c3ccccc3)n2)c(Oc2ncc(C(F)(F)F)cc2Cl)c1
The melting point of the first is higher: 286 °C for the first, 86 to 88 °C for the second.

First: N#Cc1ccc(Nc2ccc(C(F)(F)F)cc2Nc2ccc(C#N)cc2C(=O)O)c(C(=O)O)c1
Second: O=c1c(O)c(-c2ccc(OCc3ccccc3)c(OCc3ccccc3)c2)oc2cc(OCc3ccccc3)ccc12
The melting point of the first is higher: 235 to 240 °C for the first, 120 to 121 °C for the second.

First: CC(C(=O)O)c1ccc(C2CCCCC2)c2ccccc12 (centres undefined)
Second: Cc1nc(CNC=O)ccc1OCc1ccccc1
The melting point of the first is higher: 150 °C for the first, 67 to 68 °C for the second.

First: COCCCN1CCC(CNC(=O)c2cc(Cl)c(N)c(OC)c2OC)C(O)C1 (centres undefined)
Second: CCC(NC(=S)Nc1nc(C)cs1)C(C)C (centres undefined)
The melting point of the first is lower: 110 °C for the first, 164 to 166 °C for the second.
